Experiments:
[1] = tested on: WT or open HLA-A*29:02/FTSDYYQLY; experiment: Fluorescence polarization IC50 competition assay; assay type: binding, human; conditions: competitor vs FITCKLIDVFHQY
Source text: Kinetic association measurements were collected as previously described. Non-linear regression fitting allowed calculating plateau polarization (mP) values for each kinetic curve. Log transformed values of each peptide concentration were plotted against the plateau mP value, and an IC50 curve was fit.

[2] = target: T1, MR1 (Homo sapiens, UniProt Q95460, C283S/G138C); experiment: Fluorescence polarization competitive ligand binding (JYM20, DCF-loaded open MR1); conditions: 10 nM JYM20; 200 nM DCF-loaded open MR1; pH 7.4
T1 construct: made in house; host or cells: Escherichia coli BL21(DE3) per the general methods
T1 sequence (Q95460 with tags, fused parts or gaps G138C/C283S): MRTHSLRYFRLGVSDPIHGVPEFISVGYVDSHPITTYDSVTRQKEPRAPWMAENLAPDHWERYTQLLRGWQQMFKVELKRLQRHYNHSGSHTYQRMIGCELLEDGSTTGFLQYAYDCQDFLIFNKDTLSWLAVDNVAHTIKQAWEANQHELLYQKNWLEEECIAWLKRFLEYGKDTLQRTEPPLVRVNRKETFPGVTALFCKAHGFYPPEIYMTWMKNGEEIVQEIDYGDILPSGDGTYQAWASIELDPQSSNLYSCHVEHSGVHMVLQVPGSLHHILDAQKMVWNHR
T1 sequence (as listed by the source partner): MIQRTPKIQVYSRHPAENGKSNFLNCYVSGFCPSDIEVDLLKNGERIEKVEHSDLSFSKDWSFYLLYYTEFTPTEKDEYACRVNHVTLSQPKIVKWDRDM
Description: To optimize fluorescence polarization (FP), a direct binding assay between JYM20 and MR1 was conducted to determine the minimum concentration of MR1 and JYM20 required for a maximal signal, as well as the buffer conditions. The FP signal is generated by polarized excitation wavelengths, resulting in depolarized emission when JYM20 is free in solution (with low FP value). […] Because DCF is not a covalent binding ligand, the DCF-loaded open MR1 and JYM20 can together screen a wide range of cancer metabolites for MR1.
Briefly, a buffer consistent of 150 mM NaCl, 20 mM sodium phosphate, 0.05% Tween-20, pH 7.4 was used since Applicants don't need nonphysiologically acidic environment to break the Schiff base. A serial dilution of cancer metabolites in a range of 60-0.06 mM, which were selected from the preliminary in silico screening, was added to 200 nM MR1 and 10 nM JYM20 in a final volume of 100 μL. The kinetic association was monitored for 16 hours, and polarization measurements were recorded every 186 seconds. Excitation and emission values used to monitor the fluorescence of TAMRA-labeled peptides were 531 and 595 nm. All experiments were performed in triplicates at room temperature. Raw parallel (III) and perpendicular emission intensities (I⊥) were collected and converted to polarization (mP) values using the equation 1000*[(III−(G*I⊥))/(III+(G*I⊥))]. An optimized G-factor was determined to be 0.33 for TAMRA-labeled peptides in calculating baseline fluorescence. Non-linear regression fitting of one phase association allowed calculating plateau polarization (mP) values for each kinetic curve. Log transformed values of each peptide concentration were plotted against the plateau mP value, and an IC50 curve was fit using log (inhibitor) vs. response (three parameters) curve from GraphPad Prism v9^9.

| Compound | relative binding affinities (IC50) to MR1 [2] | IC50, open compared to WT [1] |
| --- | --- | --- |
| ALIDVFHQY |  | same IC50 |
| O=C(O)C1=C[C@@H](O)[C@@H](O)[C@H](O)C1 [SKA, shikimic acid] | low-millimolar |  |
| O=C(O)C1=CC(=O)[C@@H](O)[C@H](O)C1 [3DA, 3-Dehydroshikimic acid] | low-millimolar |  |

Second part, led by results:

| relative binding affinities (IC50) to MR1 [2] | Compound | IC50, open compared to WT [1] |
| --- | --- | --- |
| low-millimolar | O=c1ccn([C@@H]2O[C@H](COP(=O)(O)O)[C@@H](O)[C@H]2O)c(=O)[nH]1 [UMP, Uridine 5′-monophosphate] |  |
| low-millimolar | O=C(O)Cc1ccccc1Nc1c(Cl)cccc1Cl [DCF, diclofenac, reference compound] |  |

Source: patent US20260097105A1, “SYSTEMS, FORMULATIONS AND METHODS FOR GENERATING UNIVERSAL PEPTIDE/MHC COMPLEXES WITH ENGINEERED DISULFIDE CONNECTING THE HEAVY AND LIGHT CHAINS” (priority 2022, published 2026)
